Data reported in ChEMBL document CHEMBL1201862, “PubChem BioAssay data set” (2004).
Activity calls are given as the source filed them.

Tests used:
[1] = molecular target: T1, NADPH oxidase 1 (Homo sapiens, UniProt Q9Y5S8); assay: Late stage results from the probe development effort to identify inhibitors of NOX1: HEK/293 IC50. [Related pubchem assays: 1796 (Summary AID (NOX1)), 2752 (Primary screen (NOX1 inhibitors, synthesized analogs set 2)), 2664 (Primary screen (NOX1 inhibitors, synthesized analogs)), 1792 (Primary Screen (NOX1)), 2545 (Confirmation screen (NOX1 …; type: functional
[2] = molecular target: T1, NADPH oxidase 1; assay: potency of NOX1 inhibition in cells – cell-based, luminescence, cherry picks 2, dose response (AID 434997); type: functional
[3] = molecular target: Sphingosine 1-phosphate receptor 2 (Homo sapiens, UniProt O95136); assay: Dose Response Cell Based Assay for Antagonists of the S1P2 Receptor. [Related pubchem assays: 856, 736 ]; type: functional
[4] = system: Danio rerio; assay: In Vivo Angiogenesis Dose-Response Confirmation. [Related pubchem assays: 732 (Assay preceding this confirmatory assay.)]; type: functional, organism-based
[5] = M. tuberculosis growth inhibition, HTS (AID 449762); type: functional
[6] = microbe, parasite or virus in culture; type: functional; settings: Mycobacterium tuberculosis
[7] = molecular target: Heat shock protein HSP 90-alpha (Homo sapiens, UniProt P07900); type: functional, organism-based
[8] = Luminescent dose response cell-based high throughput screening assay for inhibitors of the Janus kinase 2 mutant JAK2V617F. [Related pubchem assays: 1446 (Primary screen.), 1521 (Confirmation assay.), 1486 (Counter screen.)]; type: functional
[9] = Potency on glucagon-like peptide 1 release, dose-response in NCI-H716 cell line, half maximal inhibitory concentration (AID 1117344); type: functional, cell-based
[10] = IC50 of insulin release inhibition, rat insulinoma INS-1E line, 5 mM glucose, cell-based (AID 1117331); type: functional
[11] = molecular target: E3 ubiquitin-protein ligase Mdm2 (Homo sapiens, UniProt Q00987); assay: MDM2-luc reporter signal enhancers, multi-concentration potency testing, MDM2 ubiquitin-protein ligase inhibitor program, whole-cell format, luminescence detection, 384-well microplate (AID 1394); type: functional;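 note: MDM2 E3 inhibitors raise luminescence so EC50 is for signal enhancement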
[12] = molecular target: Bifunctional protein GlmU (Mycobacterium tuberculosis, UniProt P9WMN3); assay: Inhibitors of Mycobacterial Glucosamine-1-phosphate acetyl transferase (GlmU). Secondary screen.; set-up: species or system Mycobacterium tuberculosis H37Rv
Chain of Bifunctional protein GlmU (P9WMN3 whole entry): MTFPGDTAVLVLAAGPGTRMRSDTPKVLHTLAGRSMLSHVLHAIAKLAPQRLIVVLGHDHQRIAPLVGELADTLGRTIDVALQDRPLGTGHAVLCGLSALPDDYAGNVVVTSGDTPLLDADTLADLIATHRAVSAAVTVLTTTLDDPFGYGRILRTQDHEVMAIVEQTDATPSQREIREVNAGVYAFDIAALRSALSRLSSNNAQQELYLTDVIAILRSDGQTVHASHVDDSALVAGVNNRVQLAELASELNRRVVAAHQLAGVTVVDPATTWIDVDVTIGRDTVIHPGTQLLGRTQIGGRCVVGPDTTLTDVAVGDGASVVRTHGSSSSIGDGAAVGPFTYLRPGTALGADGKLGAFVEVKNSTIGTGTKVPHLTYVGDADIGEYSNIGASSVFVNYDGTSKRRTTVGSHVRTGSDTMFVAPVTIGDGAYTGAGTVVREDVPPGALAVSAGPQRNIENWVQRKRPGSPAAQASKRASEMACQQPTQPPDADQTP

T1 sequence (Q9Y5S8 whole entry): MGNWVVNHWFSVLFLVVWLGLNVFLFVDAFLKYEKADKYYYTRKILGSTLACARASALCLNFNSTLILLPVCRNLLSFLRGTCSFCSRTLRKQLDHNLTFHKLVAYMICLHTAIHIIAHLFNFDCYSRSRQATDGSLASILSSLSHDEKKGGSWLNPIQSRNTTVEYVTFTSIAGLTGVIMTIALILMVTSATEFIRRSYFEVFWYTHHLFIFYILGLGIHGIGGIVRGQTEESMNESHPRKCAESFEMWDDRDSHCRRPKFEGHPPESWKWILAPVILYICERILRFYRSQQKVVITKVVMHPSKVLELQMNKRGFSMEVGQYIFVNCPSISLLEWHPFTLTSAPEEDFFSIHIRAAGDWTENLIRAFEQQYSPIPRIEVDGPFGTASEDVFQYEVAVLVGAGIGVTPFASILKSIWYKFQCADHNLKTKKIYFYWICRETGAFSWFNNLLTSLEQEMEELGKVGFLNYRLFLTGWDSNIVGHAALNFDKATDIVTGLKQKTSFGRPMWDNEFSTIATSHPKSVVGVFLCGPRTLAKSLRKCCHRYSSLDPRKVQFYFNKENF
Chain of E3 ubiquitin-protein ligase Mdm2 (Q00987 whole entry): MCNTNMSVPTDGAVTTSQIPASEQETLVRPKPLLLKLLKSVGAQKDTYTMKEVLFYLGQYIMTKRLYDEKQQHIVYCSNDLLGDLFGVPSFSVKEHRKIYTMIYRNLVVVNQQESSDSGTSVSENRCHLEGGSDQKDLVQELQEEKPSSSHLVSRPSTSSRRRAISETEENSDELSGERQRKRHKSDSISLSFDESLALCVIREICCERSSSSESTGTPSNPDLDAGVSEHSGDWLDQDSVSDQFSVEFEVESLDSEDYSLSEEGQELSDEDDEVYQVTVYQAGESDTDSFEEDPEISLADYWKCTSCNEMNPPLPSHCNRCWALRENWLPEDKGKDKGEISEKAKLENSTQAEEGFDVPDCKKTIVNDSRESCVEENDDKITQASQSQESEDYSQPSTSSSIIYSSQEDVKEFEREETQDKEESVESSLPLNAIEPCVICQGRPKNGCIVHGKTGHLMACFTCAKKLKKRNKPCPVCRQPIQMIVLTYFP
Chain of Sphingosine 1-phosphate receptor 2 (O95136 whole entry): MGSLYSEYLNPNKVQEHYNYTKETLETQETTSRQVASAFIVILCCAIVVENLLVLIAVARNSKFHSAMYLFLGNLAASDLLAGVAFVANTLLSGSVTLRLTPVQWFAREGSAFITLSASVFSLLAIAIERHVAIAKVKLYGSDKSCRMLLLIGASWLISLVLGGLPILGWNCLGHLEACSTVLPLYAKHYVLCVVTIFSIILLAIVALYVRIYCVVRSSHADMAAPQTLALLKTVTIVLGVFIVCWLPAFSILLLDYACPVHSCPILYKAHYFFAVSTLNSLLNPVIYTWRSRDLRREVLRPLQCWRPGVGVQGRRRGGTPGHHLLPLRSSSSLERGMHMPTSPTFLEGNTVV

CN(C)c1ccc(NC(=O)Nc2ccc(OCc3ccccc3)cc2)cc1
IC50 [1]: 2.37 µM (active)
IC50 [2]: 230 nM (active)

Cc1nc(-c2cccs2)sc1C(=O)Nc1ccc(F)cc1
IC50 [3]: > 30 µM (not active)

Cc1cccc2c1NC(=O)/C2=C1\Nc2ccccc2C1=O
IC50 [4]: 1.23 µM (active)

CCOc1cc(/C=N\NC(=O)Cn2nc([N+](=O)[O-])cc2C)ccc1OCc1cccc2ccccc12
IC50 [5]: > 100 µM (active)
CC50 [6]: > 40 µM (active)

CN(C)C(=S)SSC(=S)N(C)C [THIRAM]
AC50 [7]: 7.74 µM (active)
IC50 [8]: 223 nM (active)
IC50 [9]: > 40 µM (inactive)
IC50 [10]: > 33.3 µM (inactive)
EC50 [11]: 180 nM (active)
IC50 [12]: 89.3 µM (active)
